Laboratory results reported in ChEMBL document CHEMBL6078704, “Redesigning Berberines and Sanguinarines to Target Soluble Epoxide Hydrolase for Enhanced Anti-Inflammatory Efficacy” (J Med Chem, 2024).
Calls of active or inactive are those of the source. The calls are words filed in the database; no cut-off is given here.

How the values were obtained:
HepG2 = assay: Cytotoxicity against human HepG2 cells assessed as cell viability at 0.5 to 5 uM measured after 48 hrs by CCK-8 assay; type: toxicity, cell-based; details: hepg2, 48 h, dose 0.5-5 µM
[1] = Acute toxicity in BALB/c mouse assessed as pathological changes in liver tissue by measuring inflammation at 100 mg/kg, po single dose measured for 24 hrs; type: organism-based; details: in vivo
[2] = Tmax in Sprague-Dawley rat at 20 mg/kg, po measured up to 24 hrs; type: ADME, organism-based; details: in vivo
Mus musculus [3] = assay: Anti-inflammatory activity in cerulein-induced acute pancreatitis in CD1 mouse model assessed as decrease in cerulein-induced pancreatitis by measuring pancreatic histopathology at 20 mg/kg, ip administered 30 and 150 mins post-cerulein treatment measured after 6 hrs post-cerulein treatment by H and E staining based analysis; type: functional, organism-based; details: time 30-360 min
Mus musculus [4] = assay: Antiinflammatory activity against cerulein-induced acute pancreatitis in CD1 mouse assessed as increase in plasma 8,9-EET/DHET ratio at 20 mg/kg, ip pretreated with cerulein followed by compound injection on 30 and 150 mins and measured 6 hrs post cerulein treatment relative to model group; type: functional; details: time 30-360 min
[5] = Acute toxicity in BALB/c mouse assessed as pathological changes in kidney tissue by measuring necrosis at 100 mg/kg, po single dose measured for 24 hrs; type: organism-based; details: in vivo
[6] = Cmax in Sprague-Dawley rat at 5 mg/kg, iv measured up to 24 hrs; type: ADME, organism-based; details: in vivo
[7] = Acute toxicity in BALB/c mouse assessed as pathological changes in liver tissue by measuring necrosis at 100 mg/kg, po single dose measured for 24 hrs; type: organism-based; details: in vivo
[8] = AUC (0 to infinity) in Sprague-Dawley rat at 5 mg/kg, iv measured up to 24 hrs; type: ADME, organism-based; details: in vivo
[9] = Acute toxicity in male BALB/c mouse assessed as physiological changes at 100 mg/kg, po single dose measured for 24 hrs; type: organism-based; details: in vivo
Mus musculus [10] = assay: Antiinflammatory activity against cerulein-induced acute pancreatitis in CD1 mouse assessed as increase in pancreatic 8,9-EET/DHET ratio at 20 mg/kg, ip pretreated with cerulein followed by compound injection on 30 and 150 mins and measured 6 hrs post cerulein treatment relative to model group; type: functional; details: time 30-360 min
Mus musculus [11] = assay: Anti-inflammatory activity in cerulein-induced acute pancreatitis in CD1 mouse model assessed as decrease in plasma TNFalpha level at 20 mg/kg, ip administered 30 and 150 mins post-cerulein treatment measured after 6 hrs post-cerulein treatment by ELISA; type: functional, organism-based
[12] = Half life in Sprague-Dawley rat at 5 mg/kg, iv measured up to 24 hrs; type: ADME, organism-based; details: in vivo
HEK-293T = assay: Cytotoxicity against human 293T cells assessed as cell viability at 0.5 to 5 uM measured after 48 hrs by CCK-8 assay; type: toxicity, cell-based; details: dose 0.5-5 µM
[13] = Acute toxicity in BALB/c mouse assessed as pathological changes in kidney tissue by measuring inflammation at 100 mg/kg, po single dose measured for 24 hrs; type: organism-based; details: in vivo
[14] = Clearance in Sprague-Dawley rat at 20 mg/kg, po measured up to 24 hrs; type: ADME, organism-based; details: in vivo
[15] = Half life in Sprague-Dawley rat at 20 mg/kg, po measured up to 24 hrs; type: ADME, organism-based; details: in vivo
[16] = Volume of distribution (Vz) in Sprague-Dawley rat at 20 mg/kg, po measured up to 24 hrs; type: ADME, organism-based; details: in vivo
[17] = Clearance in Sprague-Dawley rat at 5 mg/kg, iv measured up to 24 hrs; type: ADME, organism-based; details: in vivo
[18] = Volume of distribution (Vz) in Sprague-Dawley rat at 5 mg/kg, iv measured up to 24 hrs; type: ADME, organism-based; details: in vivo, read-out: Vz
[19] = AUC (0 to infinity) in Sprague-Dawley rat at 20 mg/kg, po measured up to 24 hrs; type: ADME, organism-based; details: in vivo
Mus musculus [20] = assay: Anti-inflammatory activity in cerulein-induced acute pancreatitis in CD1 mouse model assessed as decrease in plasma IL-6 level at 20 mg/kg, ip administered 30 and 150 mins post-cerulein treatment measured after 6 hrs post-cerulein treatment by ELISA; type: functional, organism-based
Mus musculus [21] = assay: In vivo inhibition sEH activity in cerulein-induced acute pancreatitis in CD1 mouse model assessed as enzyme activity in pancreatic homogenate at 20 mg/kg, ip administered 30 and 150 mins post-cerulein treatment measured after 6 hrs post-cerulein treatment; type: functional, organism-based; details: time 30-360 min
[22] = Oral bioavailability in Sprague-Dawley rat at 20 mg/kg measured up to 24 hrs; type: ADME, organism-based; details: in vivo
[23] = AUC (0 to 24 hrs) in Sprague-Dawley rat at 5 mg/kg, iv measured up to 24 hrs; type: ADME, organism-based; details: in vivo
[24] = Tmax in Sprague-Dawley rat at 5 mg/kg, iv measured up to 24 hrs; type: ADME, organism-based; details: in vivo
[25] = AUC (0 to 24 hrs) in Sprague-Dawley rat at 20 mg/kg, po measured up to 24 hrs; type: ADME, organism-based; details: in vivo
[26] = Acute toxicity in female BALB/c mouse assessed as physiological changes at 100 mg/kg, po single dose measured for 24 hrs; type: organism-based; details: in vivo
[27] = Cmax in Sprague-Dawley rat at 20 mg/kg, po measured up to 24 hrs; type: ADME, organism-based; details: in vivo
[28] = Acute toxicity in BALB/c mouse assessed as pathological changes in kidney tissue by measuring hemorrhage at 100 mg/kg, po single dose measured for 24 hrs; type: organism-based; details: in vivo
[29] = Acute toxicity in BALB/c mouse assessed as pathological changes in liver tissue by measuring hemorrhage at 100 mg/kg, po single dose measured for 24 hrs; type: organism-based; details: in vivo
Mus musculus [30] = assay: Antiinflammatory activity against cerulein-induced acute pancreatitis in CD1 mouse assessed as increase in plasma 14,15-EET/DHET ratio at 20 mg/kg, ip pretreated with cerulein followed by compound injection on 30 and 150 mins and measured 6 hrs post cerulein treatment relative to model group; type: functional; details: time 30-360 min
Mus musculus [31] = assay: Anti-inflammatory activity in carrageen-induced paw edema BALB/c mouse model assessed as inhibition of soft tissue edema and inflammation measured immediately at 20 mg/kg, po measured at 3 hrs; type: functional
Staphylococcus aureus [32] = assay: Antimicrobial activity against methicillin-resistant Staphylococcus aureus 19B120 by microbroth dilution method; type: functional
Mus musculus [33] = assay: Antiinflammatory activity against cerulein-induced acute pancreatitis in CD1 mouse assessed as increase in pancreatic 14,15-EET/DHET ratio at 20 mg/kg, ip pretreated with cerulein followed by compound injection on 30 and 150 mins and measured 6 hrs post cerulein treatment relative to model group; type: functional; details: time 30-360 min
Staphylococcus aureus [34] = assay: Antimicrobial activity against Staphylococcus aureus ATCC 29213 by microbroth dilution method; type: functional

COc1cc2c(cc1OC)[C@H]1Cc3ccc(NC(=O)NCc4ccc(OC(F)(F)F)cc4)cc3CN1CC2
Activity (HepG2): Non-toxic | Activity [1]: Non-toxic | Tmax [2]: 1.67 h | Activity (Mus musculus [3]): Active | fold change (FC) (Mus musculus [4]): 3.8 | Activity [5]: Non-toxic | Cmax [6]: 4860 ng/mL | Activity [7]: Non-toxic | AUC(0-inf) [8]: 29600 ng·h/mL | Activity [9]: Non-toxic | fold change (FC) (Mus musculus [10]): 5.4 | Activity (Mus musculus [11]): Active | half-life [12]: 6.1 h | Activity (HEK-293T): Non-toxic | Activity [13]: Non-toxic | CL/F [14]: 3.03 mL/min/kg | half-life [15]: 7.2 h | Vz [16]: 1.889 L/kg | clearance [17]: 2.85 mL/min/kg | Vd [18]: 1.49 L/kg | AUC(0-inf) [19]: 110000 ng·h/mL | Activity (Mus musculus [20]): Active | Activity (Mus musculus [21]): Active | bioavailability [22]: 89.3% | AUC(0-t) at 24 h [23]: 27800 ng·h/mL | Tmax [24]: 4.8 min | AUC(0-t) at 24 h [25]: 99500 ng·h/mL | Activity [26]: Non-toxic | Cmax [27]: 10300 ng/mL | Activity [28]: Non-toxic | Activity [29]: Non-toxic | fold change (FC) (Mus musculus [30]): 15.4 | inhibition in vivo at 20 mg/kg (Mus musculus [31]): 33% | MIC (Staphylococcus aureus [32]): > 64 µg/mL | fold change (FC) (Mus musculus [33]): 26 | MIC (Staphylococcus aureus [34]): > 64 µg/mL
